Experimental findings from ChEMBL document CHEMBL4673187, “Recent developments of small molecule gamma-secretase modulators for Alzheimer''s disease” (RSC Med Chem, 2020) are described below.

Broadly, the IC50 is the concentration that gives 50% inhibition. In general, Cmax refers to the highest concentration seen after dosing. The term EC50 denotes the concentration giving half of the maximal effect. In general, logD refers to the decadic logarithm of the distribution of all forms, ionised or not, between an organic phase and buffer at a given pH.

SMILES strings stand for the structures.

A short description of data set [1]: Modulation of gamma secretase in Wistar rat fetal brain-derived neuronal cell incubated for 3 days by ELISA. Particulars: 72 h. For orientation: In an ELISA, binding on a coated surface is turned into a signal by an enzyme label.
Data set [2] in a line: Maximum concentration of drug in po dosed CF1 mouse brain and measured at 4 hrs by liquid chromatography and tandem mass spectrometry. It counts as ADME, organism-based. Also noted: route oral, time 4 hrs.
A short description of data set [3]: Modulation of gamma-secretase in CHO cells expressing APP V717F assessed as increase in amyloid beta38 level. It counts as cell-based. Particulars: Cricetulus griseus.
Data set [4] can be described thus: In vivo modulation of gamma secretase in CF1 mouse assessed as increase in amyloid beta38 level at 10 mg/kg, po administered as single dose measured after 16 hrs by ELISA relative to control. In kind it is functional.
The nature of data set [5]: In vivo modulation of gamma secretase in CF1 mouse assessed as increase in plasma amyloid beta38 level at 100 mg/kg, po measured after 4 hrs by ELISA relative to control. It counts as functional.
The nature of data set [6]: Modulation of gamma-secretase in CHO cells expressing APP V717F assessed as reduction in amyloid beta42 level. In kind it is cell-based. Particulars: Cricetulus griseus.
A short description of data set [7]: In vivo modulation of gamma secretase in CF1 mouse assessed as reduction in brain amyloid beta40 level at 100 mg/kg, po measured after 4 hrs by ELISA relative to control. In kind it is functional. More on the design: scale not given: the % may be the effect or the level left.
Data set [8] can be described thus: Ratio of drug level in CF1 mouse brain to plasma at 3 to 100 mg/kg, po measured after 4 hrs by liquid chromatography and tandem mass spectrometry. In kind it is ADME, organism-based. Particulars: dose 3-100 mg/kg, read-out: BPR.
Data set [9] can be described thus: In vivo modulation of gamma secretase in transgenic Tg2576 mouse assessed as reduction in insoluble amyloid beta42 level at 60 mg/kg, po administered once daily for 65 days by ELISA relative to control. Particulars: time 65 day. Also noted: scale not given: the % may be the effect or the level left. In kind it is functional.
A short description of data set [10]: In vivo modulation of gamma secretase in CF1 mouse assessed as reduction in brain amyloid beta42 level at 100 mg/kg, po measured after 4 hrs by ELISA relative to control. It counts as functional. More on the design: scale not given: the % may be the effect or the level left.
The nature of data set [11]: In vivo modulation of gamma secretase in CF1 mouse assessed as reduction in amyloid beta42 level at 10 mg/kg, po administered as single dose measured after 4 hrs by ELISA relative to control. It counts as functional. Also noted: scale not given: the % may be the effect or the level left.
A short description of data set [12]: In vivo modulation of gamma secretase in CF1 mouse assessed as reduction in plasma amyloid beta40 level at 100 mg/kg, po measured after 4 hrs by ELISA relative to control. It counts as functional. Also noted: scale not given: the % may be the effect or the level left.
Data set [13] in a line: In vivo modulation of gamma secretase in CF1 mouse assessed as increase in brain amyloid beta38 level at 100 mg/kg, po measured after 4 hrs by ELISA relative to control. In kind it is functional.
Data set [14] can be described thus: In vivo modulation of gamma secretase in CF1 mouse assessed as reduction in plasma amyloid beta42 level at 100 mg/kg, po measured after 4 hrs by ELISA relative to control. It counts as functional. Also noted: scale not given: the % may be the effect or the level left.
In data set [15] the target is Gamma-secretase. Description: Modulation of gamma-secretase in human H4 cells expressing human wild type APP751 assessed as increase in amyloid beta38 level incubated for 17 hrs by ELISA. It counts as cell-based.
Data set [16] can be described thus: In vivo modulation of gamma secretase in transgenic Tg2576 mouse assessed as reduction in soluble amyloid beta42 level at 60 mg/kg, po administered once daily for 65 days by ELISA relative to control. It counts as functional. Also noted: scale not given: the % may be the effect or the level left. Particulars: time 65 day.
For data set [17], the target named is Gamma-secretase. Description: Modulation of gamma-secretase in human H4 cells expressing human wild type APP751 assessed as reduction in amyloid beta42 level incubated for 17 hrs by ELISA. In kind it is cell-based.
A short description of data set [18]: In vivo modulation of gamma secretase in transgenic Tg2576 C57BL/6 mouse assessed as reduction in amyloid beta42 level at 30 mg/kg, po administered as single dose measured after 4 hrs by ELISA relative to control. It counts as functional. More on the design: scale not given: the % may be the effect or the level left.
Data set [19] in a line: In vivo modulation of gamma secretase in transgenic Tg2576 C57BL/6 mouse assessed as reduction in amyloid beta42 level at 10 mg/kg, po administered as single dose measured after 4 hrs by ELISA relative to control. More on the design: scale not given: the % may be the effect or the level left. In kind it is functional.
The nature of data set [20]: Lipophilicity, logD of the compound. In kind it is physicochemical. Particulars: octanol/water.
Data set [21] can be described thus: In vivo modulation of gamma secretase in C57BL/6 mouse assessed as reduction in amyloid beta42 level at 10 mg/kg, po measured at 3 hrs relative to control. Also noted: scale not given: the % may be the effect or the level left. In kind it is functional.
The nature of data set [22]: Inhibition of notch signalling (unknown origin). Also noted: species or system Homo sapiens.
Data set [23] can be described thus: In vivo modulation of gamma secretase in C57BL/6 mouse assessed as reduction in amyloid beta42 level at 30 mg/kg, po measured at 3 hrs relative to control. It counts as functional. More on the design: scale not given: the % may be the effect or the level left.
Data set [24] concerns the target Gamma-secretase. Description: Modulation of gamma-secretase in human H4 cells expressing human APP assessed as reduction in amyloid beta42 level incubated for 22 hrs. It counts as cell-based.

`COc1cc(/C=C2\CCCN([C@@H](C)c3ccc(F)cc3)C2=O)ccc1-n1cnc(C)c1` registered an IC50 in data set [1] of 93 nM.

`CC1CCN([C@H](c2ccc(F)cc2)c2ccc([C@@H](C)C(=O)O)cc2-c2ccc(C(F)(F)F)cc2)CC1` came in with a Cmax in data set [2] of 7.5 µM. The figures for the EC50 (in data set [3]; at Gamma-secretase [15]) were 150 nM and 146 nM, respectively. Moreover, the Activity is on record as 50% in [4]; 82% in data set [5]; 16% in [7]; 80% in data set [9]; 60% in data set [10]; 40% in data set [11]. Also, the Activity came to 25% in data set [12], 98% in data set [13], 45% in data set [14] and 50% in data set [16]. In addition, the IC50 in [6] was 170 nM; on Gamma-secretase [17] it was 64 nM. Besides, the Kp at 4 h in [8] is 0.8.

`O=C(O)[C@H](CC1CCC1)c1cc(Cl)c(OCC(F)(F)F)c(-c2ccc(C(F)(F)F)cc2)c1`: the Activity in data set [18] came to 38%; in data set [19], 22%.

Turning to `COc1cc(-c2nnc3n2CCCC3c2ccc(Cl)c(Cl)c2)ccc1-c1cnc(C)o1` (stereo not given), the log distribution coefficient (logD) in data set [20] came out at 3.2.

Consider `COc1cc(-c2nnc3n2CCCC32OCc3c(cccc3C(F)(F)F)N(CC(F)(F)F)C2=O)ccc1-c1cnc(C)o1` (stereo not given), for which the log distribution coefficient (logD) in data set [20] was 2.9.

In the case of `COc1cc(-c2nnc3n2CCCC32OCc3c(Cl)cccc3N(CC(F)(F)F)C2=O)ccc1-c1cnc(C)o1` (stereo not given), in [20], the logD came to 2.8.

Turning to `COc1cc(-c2nnc3n2CCCC3(Oc2ccc(F)c(Cl)c2)C(C)(C)O)ccc1-c1cnc(C)o1` (stereo not given), in data set [20], the logD was determined as 3.2.

In the case of `COc1cc(-c2nnc3n2CCC[C@]3(Oc2cc(F)c(F)c(F)c2)C(C)(C)O)ccc1-c1cnc(C)o1`, the Activity in data set [21] was 44%. Besides, the IC50 in [22] is at least 10000 nM. The compound further came in with a logD in data set [20] of 3.2.

In [20], `COc1cc(-c2nnc3n2CCC[C@@]3(Oc2cc(F)c(F)c(F)c2)C(C)(C)O)ccc1-c1cnc(C)o1` registered a logD of 3.2.

`COc1cc(-c2nnc3n2CCCC3(Cc2ccc(F)c(F)c2)C(=O)NCC(F)(F)F)ccc1-c1cnc(C)o1` (stereo not given): in data set [20], the logD was 3. In data set [23], the Activity is listed as 4%.

`Cc1nsc(N2CCC(Nc3nc4c(-c5ccc(F)c(F)c5F)cccn4n3)C(F)(F)C2)n1` (stereo not given): on Gamma-secretase [24], the IC50 worked out at 143 nM.
